The results in this text go back to the supplement of paper PMC12076712.

Holding throughout (test): pIC50, kinobeads binding competition
Common to all, as to settings: cell material: Lysate mix

The target in experiment [1] is UniProt Q16513. The procedure, abridged: (§1)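 Fold changes relative to vehicle, from biological duplicates, were fitted with logistic dose-response models in the R drc package to give pIC50. These fold changes came from TMT10 LC-MS/MS quantification of digested Kinobeads-bound proteins. Compound was applied at nine concentrations (top 30 μM) either to live Jurkat cells in 1:4 steps for 60 min at 37 °C before lysis, or to Jurkat lysate or a 1:1:1:1 HEK293/K-562/HepG2/placenta lysate mix in 1:5 steps for 60 min at 4 °C.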

Experiment [2] addresses ABL2 (UniProt P42684). The procedure, abridged:
as §1

In experiment [3] the target is UniProt Q15418. The procedure, abridged:
as §1

In experiment [4] the target is LYN (UniProt P07948). The procedure, abridged:
as §1

Experiment [5] concerns the target UniProt Q9Y2I7. The method, boiled down: as §1
The target in experiment [6] is UniProt P45983. The method, boiled down:
as §1

For experiment [7], the target named is UniProt P07947. The method, boiled down:
as §1

In experiment [8] the target is DAPK3 (UniProt O43293). The procedure, abridged: as §1
Chain of DAPK3 (O43293 whole entry, looked up): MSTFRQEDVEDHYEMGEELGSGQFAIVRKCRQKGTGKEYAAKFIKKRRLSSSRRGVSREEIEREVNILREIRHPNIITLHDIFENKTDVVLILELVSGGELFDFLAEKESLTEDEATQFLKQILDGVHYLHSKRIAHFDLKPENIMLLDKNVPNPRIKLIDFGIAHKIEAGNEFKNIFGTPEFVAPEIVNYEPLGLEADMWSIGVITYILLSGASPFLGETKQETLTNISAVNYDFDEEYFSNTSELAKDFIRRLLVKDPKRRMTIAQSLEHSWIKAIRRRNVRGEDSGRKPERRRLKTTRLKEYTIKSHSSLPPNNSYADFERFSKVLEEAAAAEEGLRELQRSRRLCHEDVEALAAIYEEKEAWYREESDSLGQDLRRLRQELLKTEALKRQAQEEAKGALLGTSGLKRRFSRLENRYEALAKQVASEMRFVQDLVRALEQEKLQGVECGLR
Experiment [9] addresses MYLK (UniProt Q15746). The procedure, abridged: as §1
Experiment [10] concerns the target MAP3K4 (UniProt Q9Y6R4). The procedure, abridged:
as §1

Experiment [11] addresses UniProt P51812. The method, boiled down: as §1
In experiment [12] the target is T1, PRKD3 (UniProt O94806).
T1 sequence (whole entry): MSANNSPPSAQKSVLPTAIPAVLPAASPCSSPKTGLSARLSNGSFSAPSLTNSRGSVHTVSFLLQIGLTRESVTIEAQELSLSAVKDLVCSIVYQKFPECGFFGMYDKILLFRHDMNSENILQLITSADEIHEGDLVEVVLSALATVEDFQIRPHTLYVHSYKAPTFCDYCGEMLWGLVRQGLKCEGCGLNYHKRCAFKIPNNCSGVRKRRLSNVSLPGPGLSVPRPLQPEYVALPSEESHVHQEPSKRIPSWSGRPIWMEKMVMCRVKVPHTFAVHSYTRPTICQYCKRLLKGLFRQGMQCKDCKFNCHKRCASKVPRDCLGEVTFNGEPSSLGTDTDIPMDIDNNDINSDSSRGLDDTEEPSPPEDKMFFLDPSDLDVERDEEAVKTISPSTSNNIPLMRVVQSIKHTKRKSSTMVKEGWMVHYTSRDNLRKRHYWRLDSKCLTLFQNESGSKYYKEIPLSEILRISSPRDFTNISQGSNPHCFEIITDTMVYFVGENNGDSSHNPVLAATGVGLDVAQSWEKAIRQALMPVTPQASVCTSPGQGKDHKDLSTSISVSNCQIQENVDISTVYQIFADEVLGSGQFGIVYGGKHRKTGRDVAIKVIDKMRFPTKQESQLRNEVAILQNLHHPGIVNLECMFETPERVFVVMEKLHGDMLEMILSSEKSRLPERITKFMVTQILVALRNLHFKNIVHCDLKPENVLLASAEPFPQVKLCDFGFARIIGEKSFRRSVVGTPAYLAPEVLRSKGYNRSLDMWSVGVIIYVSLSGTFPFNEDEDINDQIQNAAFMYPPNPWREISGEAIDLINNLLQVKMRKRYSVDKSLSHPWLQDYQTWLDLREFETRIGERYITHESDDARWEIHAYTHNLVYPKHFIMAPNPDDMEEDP
The method, boiled down:
as §1

Experiment [13] has as its target UniProt Q9BUB5. The method, boiled down: as §1
Experiment [14] addresses UniProt Q9NYV4. The method, boiled down:
as §1

Experiment [15] concerns the target SLK (UniProt Q9H2G2). The procedure, abridged: as §1
The target of experiment [16] is UniProt P17252. The method, boiled down: as §1
In experiment [17] the target is MELK (UniProt Q14680). The procedure, abridged: as §1
Chain of MELK (Q14680 whole entry, looked up): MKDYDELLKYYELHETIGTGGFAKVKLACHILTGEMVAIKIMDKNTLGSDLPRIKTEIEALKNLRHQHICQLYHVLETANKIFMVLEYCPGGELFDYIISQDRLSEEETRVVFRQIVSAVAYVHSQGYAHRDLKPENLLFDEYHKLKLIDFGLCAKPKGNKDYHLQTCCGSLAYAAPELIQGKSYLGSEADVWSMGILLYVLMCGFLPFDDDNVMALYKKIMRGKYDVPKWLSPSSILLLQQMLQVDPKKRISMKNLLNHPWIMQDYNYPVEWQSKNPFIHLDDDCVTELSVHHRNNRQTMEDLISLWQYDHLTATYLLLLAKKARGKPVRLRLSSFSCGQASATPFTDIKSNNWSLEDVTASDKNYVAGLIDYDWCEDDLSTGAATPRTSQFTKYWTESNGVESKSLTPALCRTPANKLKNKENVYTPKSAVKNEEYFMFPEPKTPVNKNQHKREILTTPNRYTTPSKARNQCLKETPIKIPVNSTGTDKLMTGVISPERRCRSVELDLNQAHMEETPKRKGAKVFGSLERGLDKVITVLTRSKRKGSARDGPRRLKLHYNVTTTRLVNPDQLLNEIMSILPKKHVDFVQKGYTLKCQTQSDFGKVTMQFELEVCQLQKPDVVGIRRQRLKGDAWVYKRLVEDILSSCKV
Experiment [18] has as its target PRKCQ (UniProt Q04759). The procedure, abridged:
as §1

In experiment [19] the target is UniProt Q07912. The method, boiled down: as §1
Chain of UniProt Q07912 (Q07912 whole entry, looked up): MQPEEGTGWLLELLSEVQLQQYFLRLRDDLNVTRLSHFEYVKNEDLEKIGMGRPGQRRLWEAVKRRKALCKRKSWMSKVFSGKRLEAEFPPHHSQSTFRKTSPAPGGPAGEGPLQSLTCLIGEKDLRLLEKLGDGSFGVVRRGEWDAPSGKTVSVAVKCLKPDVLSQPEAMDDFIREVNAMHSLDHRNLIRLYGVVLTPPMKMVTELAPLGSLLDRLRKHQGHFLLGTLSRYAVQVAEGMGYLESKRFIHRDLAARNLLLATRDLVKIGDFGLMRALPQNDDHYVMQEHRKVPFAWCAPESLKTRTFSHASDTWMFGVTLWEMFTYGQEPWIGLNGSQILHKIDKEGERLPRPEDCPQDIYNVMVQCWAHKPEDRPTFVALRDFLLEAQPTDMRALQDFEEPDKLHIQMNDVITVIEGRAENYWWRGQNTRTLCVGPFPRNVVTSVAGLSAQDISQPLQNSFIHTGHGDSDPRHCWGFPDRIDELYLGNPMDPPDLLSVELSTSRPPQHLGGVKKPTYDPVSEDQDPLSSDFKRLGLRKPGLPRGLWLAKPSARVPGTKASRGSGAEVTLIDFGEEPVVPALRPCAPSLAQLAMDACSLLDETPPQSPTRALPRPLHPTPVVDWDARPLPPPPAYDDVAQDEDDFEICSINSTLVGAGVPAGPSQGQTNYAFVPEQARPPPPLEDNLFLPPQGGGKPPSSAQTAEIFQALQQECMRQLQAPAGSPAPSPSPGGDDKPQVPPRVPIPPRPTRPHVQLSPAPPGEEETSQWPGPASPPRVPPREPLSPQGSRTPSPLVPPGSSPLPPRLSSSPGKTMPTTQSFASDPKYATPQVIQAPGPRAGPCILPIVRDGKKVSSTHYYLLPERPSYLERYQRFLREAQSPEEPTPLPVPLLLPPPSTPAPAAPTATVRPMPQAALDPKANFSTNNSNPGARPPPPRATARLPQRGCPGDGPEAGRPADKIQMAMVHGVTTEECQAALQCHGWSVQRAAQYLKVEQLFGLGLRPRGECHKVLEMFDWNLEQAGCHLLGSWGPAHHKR
In experiment [20] the target is T2, DDR2 (UniProt Q16832).
T2 sequence (whole entry): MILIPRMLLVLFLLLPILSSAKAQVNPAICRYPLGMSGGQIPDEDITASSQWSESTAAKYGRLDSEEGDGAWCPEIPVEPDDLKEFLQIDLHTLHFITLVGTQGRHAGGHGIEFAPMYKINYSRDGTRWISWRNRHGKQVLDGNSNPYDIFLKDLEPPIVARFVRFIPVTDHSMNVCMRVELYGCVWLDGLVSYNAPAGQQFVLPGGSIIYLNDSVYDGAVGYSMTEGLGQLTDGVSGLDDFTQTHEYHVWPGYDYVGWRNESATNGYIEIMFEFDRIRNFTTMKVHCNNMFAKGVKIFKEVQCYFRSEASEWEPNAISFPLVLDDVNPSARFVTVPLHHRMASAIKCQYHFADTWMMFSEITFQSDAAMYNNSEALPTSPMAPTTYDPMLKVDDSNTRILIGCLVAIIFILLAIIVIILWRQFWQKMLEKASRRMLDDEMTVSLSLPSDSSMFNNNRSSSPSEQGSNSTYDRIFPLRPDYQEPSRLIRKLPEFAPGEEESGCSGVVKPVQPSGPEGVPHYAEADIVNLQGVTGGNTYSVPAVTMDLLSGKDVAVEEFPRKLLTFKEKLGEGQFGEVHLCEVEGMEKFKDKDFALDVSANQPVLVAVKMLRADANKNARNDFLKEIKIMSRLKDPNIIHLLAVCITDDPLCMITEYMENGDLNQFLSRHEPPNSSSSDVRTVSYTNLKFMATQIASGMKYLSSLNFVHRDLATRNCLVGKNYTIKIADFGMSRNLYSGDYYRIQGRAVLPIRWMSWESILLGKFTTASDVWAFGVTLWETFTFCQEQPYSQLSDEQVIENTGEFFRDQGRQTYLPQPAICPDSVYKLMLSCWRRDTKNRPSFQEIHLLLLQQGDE
The procedure, abridged: as §1

Broadly, the pIC50 is the IC50 on a negative log10 scale, so that one unit is a factor of ten. Read a low pIC50 as a large IC50.

Chain of UniProt Q15418 (Q15418 whole entry): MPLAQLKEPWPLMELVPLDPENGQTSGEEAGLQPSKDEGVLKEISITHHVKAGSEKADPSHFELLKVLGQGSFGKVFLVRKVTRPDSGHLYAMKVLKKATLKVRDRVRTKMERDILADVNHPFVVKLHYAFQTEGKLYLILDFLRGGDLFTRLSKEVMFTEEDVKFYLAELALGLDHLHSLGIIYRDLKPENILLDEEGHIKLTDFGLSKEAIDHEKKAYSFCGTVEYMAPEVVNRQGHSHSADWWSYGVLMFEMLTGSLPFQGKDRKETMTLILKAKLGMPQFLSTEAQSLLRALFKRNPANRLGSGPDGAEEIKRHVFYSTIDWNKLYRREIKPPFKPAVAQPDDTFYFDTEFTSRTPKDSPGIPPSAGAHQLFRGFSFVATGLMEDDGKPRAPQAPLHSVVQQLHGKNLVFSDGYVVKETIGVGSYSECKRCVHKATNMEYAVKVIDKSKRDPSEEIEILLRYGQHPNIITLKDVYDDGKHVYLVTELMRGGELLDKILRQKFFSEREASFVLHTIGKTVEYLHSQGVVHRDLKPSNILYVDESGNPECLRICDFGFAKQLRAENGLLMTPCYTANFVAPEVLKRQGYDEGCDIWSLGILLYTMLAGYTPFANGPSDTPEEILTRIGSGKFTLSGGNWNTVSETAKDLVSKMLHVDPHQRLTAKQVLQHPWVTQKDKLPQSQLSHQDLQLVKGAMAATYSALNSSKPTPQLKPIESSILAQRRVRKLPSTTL
Chain of UniProt P51812 (P51812 whole entry): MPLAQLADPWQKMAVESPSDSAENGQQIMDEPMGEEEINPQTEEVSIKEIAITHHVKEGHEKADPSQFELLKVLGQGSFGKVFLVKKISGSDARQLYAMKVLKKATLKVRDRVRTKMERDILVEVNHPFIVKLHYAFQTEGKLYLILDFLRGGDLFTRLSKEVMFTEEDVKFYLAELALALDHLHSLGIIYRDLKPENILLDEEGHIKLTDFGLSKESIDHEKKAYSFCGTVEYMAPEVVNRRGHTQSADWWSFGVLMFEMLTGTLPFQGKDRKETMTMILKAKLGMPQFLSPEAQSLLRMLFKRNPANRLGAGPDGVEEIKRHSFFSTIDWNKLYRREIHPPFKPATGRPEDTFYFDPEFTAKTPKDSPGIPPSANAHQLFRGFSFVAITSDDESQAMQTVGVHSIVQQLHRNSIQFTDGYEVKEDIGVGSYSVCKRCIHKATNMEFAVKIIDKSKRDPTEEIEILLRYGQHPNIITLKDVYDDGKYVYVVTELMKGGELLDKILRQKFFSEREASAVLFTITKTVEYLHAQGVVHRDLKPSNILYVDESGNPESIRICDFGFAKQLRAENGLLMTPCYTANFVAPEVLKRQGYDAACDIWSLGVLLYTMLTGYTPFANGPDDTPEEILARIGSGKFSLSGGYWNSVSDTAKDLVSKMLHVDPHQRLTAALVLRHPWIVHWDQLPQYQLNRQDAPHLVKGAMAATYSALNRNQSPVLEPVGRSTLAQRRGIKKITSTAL
Chain of PRKCQ (Q04759 whole entry, looked up): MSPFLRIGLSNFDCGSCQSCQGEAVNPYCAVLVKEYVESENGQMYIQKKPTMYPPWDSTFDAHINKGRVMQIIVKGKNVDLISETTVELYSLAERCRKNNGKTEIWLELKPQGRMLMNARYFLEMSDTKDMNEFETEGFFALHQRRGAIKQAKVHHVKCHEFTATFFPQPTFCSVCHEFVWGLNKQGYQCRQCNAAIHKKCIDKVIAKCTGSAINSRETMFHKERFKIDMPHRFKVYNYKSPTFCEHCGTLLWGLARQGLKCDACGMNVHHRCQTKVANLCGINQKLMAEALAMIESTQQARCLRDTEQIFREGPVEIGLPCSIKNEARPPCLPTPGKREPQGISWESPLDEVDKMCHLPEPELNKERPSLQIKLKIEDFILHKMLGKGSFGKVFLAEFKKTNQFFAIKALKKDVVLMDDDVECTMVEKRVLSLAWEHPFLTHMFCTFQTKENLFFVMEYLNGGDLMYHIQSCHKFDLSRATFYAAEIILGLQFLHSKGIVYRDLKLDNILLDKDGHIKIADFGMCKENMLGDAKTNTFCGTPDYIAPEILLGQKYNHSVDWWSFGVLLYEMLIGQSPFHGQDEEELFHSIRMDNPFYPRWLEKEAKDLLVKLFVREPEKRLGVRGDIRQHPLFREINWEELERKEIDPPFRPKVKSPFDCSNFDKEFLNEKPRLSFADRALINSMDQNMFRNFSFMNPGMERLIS
Chain of LYN (P07948 whole entry, looked up): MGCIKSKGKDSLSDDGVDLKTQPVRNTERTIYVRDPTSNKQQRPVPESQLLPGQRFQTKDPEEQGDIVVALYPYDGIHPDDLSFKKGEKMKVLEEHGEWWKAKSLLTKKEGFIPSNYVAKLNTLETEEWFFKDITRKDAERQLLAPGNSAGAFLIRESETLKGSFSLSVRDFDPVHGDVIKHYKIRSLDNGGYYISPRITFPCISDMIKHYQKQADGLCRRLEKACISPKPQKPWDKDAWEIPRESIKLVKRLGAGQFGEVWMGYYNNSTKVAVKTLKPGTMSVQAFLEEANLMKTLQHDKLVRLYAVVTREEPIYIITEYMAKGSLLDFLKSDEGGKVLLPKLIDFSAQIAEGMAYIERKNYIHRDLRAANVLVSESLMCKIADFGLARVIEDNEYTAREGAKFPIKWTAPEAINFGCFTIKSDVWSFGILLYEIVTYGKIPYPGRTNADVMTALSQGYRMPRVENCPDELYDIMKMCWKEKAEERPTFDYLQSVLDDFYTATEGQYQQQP

For the compound `C#CCNC(=O)c1cc(Nc2cc(C)[nH]n2)nc(N2CCN(Cc3ccc(S(=O)(=O)F)cc3)CC2)n1`, the pIC50 in [1] is < 4.52; in experiment [2] it was 4.64; in experiment [3], 5.27; in experiment [4], 5.54; in experiment [5] it was < 4.52; in experiment [6] it was 4.6. Besides, the pIC50 in experiment [7] is 6.3; in experiment [8], 4.77; in experiment [9], < 4.52; in experiment [10], 4.88; in experiment [11], 5.11; in [12], < 4.52. Also, the pIC50 in experiment [13], in [14], in [15], in experiment [16], in experiment [17] and in [18] was < 4.52 throughout. The pIC50 in [19] and in experiment [20] was < 4.52 each time.

In the case of `CCNC(=O)c1cc(Nc2cc(C3CC3)[nH]n2)nc(N2CCN(Cc3ccc(S(=O)(=O)F)cc3)CC2)n1`, the pIC50 was < 4.52 in experiment [1]; 5.35 in experiment [2]; 5.37 in experiment [3]; 5.92 in experiment [4]; < 4.52 in [5]; 4.65 in experiment [6]. In addition, the pIC50 was 6.44 in experiment [7]; 4.83 in [8]; < 4.52 in [9]; 5.61 in [10]; 5.28 in [11]; < 4.52 in [12]. For the same compound, the pIC50 in experiment [13] is < 4.52; in experiment [14] it was 4.9; in experiment [15], < 4.52; in [16] it was 5.11; in experiment [17], < 4.52; in experiment [18], < 4.52. The pIC50 was < 4.52 in experiment [19] and 4.57 in experiment [20].
